In brackets after ≈: the same amount, converted by molar mass. Several values for one entry are separate records, joined by “and”; a condition that tells them apart may be missing. Equal entries are not always repeated. Where two headings read alike, the source gives them in different places.

The subject of test [1] is Stenotrophomonos maltophilia ATCC 13637. The test can be described thus: CLSI M07-A10 microdilution / checkerboard MIC. It counts as cell-based, Stenotrophomonas maltophilia. The following applies: for Reduced PhlB: fraction of PhlB dosage. How it is done:
(§1) Tests are conducted according to the 2015 Clinical and Laboratory Standards Institute Method M07-A10: Methods for dilution antimicrobial susceptibility tests for bacteria that grow aerobically. Sterile 96-well microplates are prepared with Meuller Hinton Broth containing varying amounts of test compounds in each well (100 μL per well). Then according to the CLSI M07-A10 microdilution assay, a row with a 2-fold serial dilution series with 10 different concentrations of the test compound are prepared along with three replicate rows for each combination of test organism and test compound. According to the CLSI M07-A10 microdilution combination (checkerboard) assay, an 8×8 well matrix containing two 2-fold serial dilution series of two test compounds arranged perpendicular to one another so that each concentration of compound 1 is prepared once with each combination of compound 2. One column with a 2-fold serial dilution series with 8 different concentrations of test compound 1 is prepared along with one column with a 2-fold serial dilution series with 8 different concentrations of test compound 2. One microplate for each combination of test organism and pair of test compounds is prepared in addition to a cell suspension of each test microorganism equivalent to a 0.5 McFarland turbidity standard using fresh isolated colonies grown on Meuller Hinton Agar. Each cell suspension is diluted in a 1:20 ratio in Meuller Hinton Broth and the microplate is inoculated by adding add 10 μL to each well. Microplates then incubate according to CLSI M07-A10.
(§2) Microplates are read and data was interpreted according to the following procedure: The minimum inhibitory concentration (MIC) is the minimum concentration of the test compound needed to cease growth of the organism, it encompasses microbe death as well as microbe loss of the ability to divide and grow. Supplemental light was used during the 24-hour incubation period. Light intensity ranged from 1259 and 4203 lux.
(In broth dilution the organism is exposed to a series of concentrations in liquid medium.)

In test [2] the test system is Altemaria alternata ATCC 66981. The experiment in a line: Mold microplate MIC (visible growth). The conditions noted are these: for Reduced PhlB: fraction of PhlB dosage. It counts as cell-based, Alternaria alternata. How it is done:
(§3) Mold: Culture Curvularia and Aspergillus on SDA at 35±1° C. for 7 days or until good sporulation is obtained. Culture Alternaria at 30±1° C. for 7 days or until good sporulation is obtained. Harvest sporulating colonies with 0.8-0.9% saline solution and transfer to a fresh tube. Allow heavy particles to settle for 5 minutes and transfer the upper homogeneous suspension to a sterile tube and mix via vortex for 15 seconds. Read and adjust the optical density to OD (530 nm): • Alternaria: 0.25-0.30 • Aspergillus: 0.09-0.13 • Curvularia: 0.25-0.30
(§4) During the Candida adjusted inoculum preparation, saline cell suspensions with optical densities equal to that of a 0.5 McFarland Equivalence Turbidity Standard were diluted 1:1000 in RPMI 1640, rather than 1:2000 as instructed in CLSI M27-A3. Alternaria was cultured at 30±1° C. for 7 days or until good sporulation was obtained.
(§5) Data Analysis/Reporting: Read microplates for visible growth (turbidity). Use the minimum inhibitory concentration (MIC).

Test [3] concerns Candida albicans ATCC 10231. The experiment in a line: Yeast microplate MIC (visible growth). It counts as cell-based. The conditions noted are these: for Reduced PhlB: fraction of PhlB dosage. The procedure: Yeast: Culture Candida on Sabouraud Dextrose Agar (SDA) at 35±1° C. for 24-48 hours until colonies are approximately 2-3 mm in diameter. Suspend ˜5 colonies in 5 mL of sterile 0.8-0.9% saline solution. Vortex for 15 seconds. Adjust the cell density to that of a 0.5 McFarland Equivalence Turbidity Standard. Prepare adjusted inoculum: Dilute the cell suspension 1:2000 in RPMI 1640. Inoculate microplates by adding 100 μL to each applicable well.
as §4, §5

Test [4] concerns Aspergillus niger ATCC 6275. The experiment in a line: Mold microplate MIC (visible growth). The conditions noted are these: for Reduced PhlB: fraction of PhlB dosage. The format is cell-based. How it is done:
as §3, §5

For test [5], the system named is Ralstonia insidiosa ATCC 49129. The experiment in a line: microbe, parasite or virus in culture. It counts as cell-based. The conditions noted are these: for Reduced PhlB: fraction of PhlB dosage. The procedure: as §1, §2
The subject of test [6] is Rhizobium radiobacter ATCC 70069. The test can be described thus: CLSI M07-A10 microdilution / checkerboard MIC. It counts as cell-based. The conditions noted are these: for Reduced PhlB: fraction of PhlB dosage; for MIC: Agrobacterium radiobacter, ATCC70069, 24 h, read-out: MIC at 24 hours in Light, Fluorescein, R. radiobacter. The procedure: as §1, §2
The subject of test [7] is Bacillus subtilis ATCC 15841. The test can be described thus: CLSI M07-A10 microdilution / checkerboard MIC. The conditions noted are these: for Reduced PhlB: fraction of PhlB dosage. The format is cell-based. How it is done: as §1, §2
The subject of test [8] is Curvularia lunata ATCC 12017. The experiment in a line: Mold microplate MIC (visible growth). It counts as cell-based. The following applies: for Reduced PhlB: fraction of PhlB dosage. How it is done:
as §3, §5

The test system of another test is Gram(−) bacteria. The following applies: PhlB on its own; background statement; cited from earlier work.
The subject of the next test is Gram(+) bacteria. The conditions noted are these: background statement; cited from earlier work.
[9] abbreviates: S. maltophilia, alone ('Trial' line).
Setting [10] is: A. alternata, alone ('Trial' line).
The mark [11] stands for this setting: C. albicans, alone ('Trial' line).
Setting [12] is: R. insidiosa, alone ('Trial' line).
[13] abbreviates: R. radiobacter, alone ('Trial' line).
Setting [14] is: B. subtilis, alone ('Trial' line).

Regarding `N.N.O=S(=O)(O)O` [Ammonium sulfate, ammonium sulfate], the “MIC at 24 hours in Light, Ammonium sulfate” value was 375000 µM in [1] (setting [9]); 46874 µM in [2] (setting [10]); 750000 µM in [3] (setting [11]); 93749 µM in [4] (A. niger, alone ('Trial' line)); 750000 µM in test [5] (setting [12]); 93800 µM in test [6] (setting [13]). For the same compound, the “MIC at 24 hours in Light, Ammonium sulfate” value in [7] (setting [14]) is 93800 µM.

Regarding `[Na+].[Na+].[O-]B1OB2OB([O-])OB(O1)O2` [NaTetraBorate, sodium tetraborate], the “MIC at 24 hours in Light, NaTetraBorate” value in test [1] (setting [9]) worked out at 5000 µM; in [2] (setting [10]), 625160 µM; in test [3] (setting [11]) it was 9999 µM; in test [8] (C. lunata, alone ('Trial' line)) it was 4999.50 µM; in test [4] (A. niger, alone ('Trial' line)), 2673 µM; in test [5] (setting [12]) it was 10000 µM. The “MIC at 24 hours in Light, NaTetraBorate” value was 2500 µM in [6] (setting [13]) and 10000 µM in [7] (setting [14]).

Regarding `O=C1OC2(c3cc(Br)c([O-])c(Br)c3Oc3c2cc(Br)c([O-])c3Br)c2c(Cl)c(Cl)c(Cl)c(Cl)c21.[Na+].[Na+]` [PHL B, disodium salt of 2′,4′,5′,7′-tetrabromo-4,5,6,7-tetrachlorofluorescein], the “Reduced PhlB” value is “⅛ and ¼ and ½ and 1/16” in test [1] (S. maltophilia, with Fluorescein); “⅛ and ¼ and ½” in [1] (S. maltophilia, with NaTetraBorate); “¼ and ½” in test [2] (A. alternata, with Ammonium sulfate); “¼” in test [2] (A. alternata, with Fluorescein); “½” in test [2] (A. alternata, with NaTetraBorate); 1/125 and 1/64 and 1/32 and 1/16 and ⅛ and ¼ and ½ in test [3] (C. albicans, with Ammonium sulfate). Besides, the “Reduced PhlB” value is 1/64 and 1/32 and 1/16 and ⅛ and ¼ and ½ in test [3] (C. albicans, with Fluorescein); 1/128 and 1/64 and 1/32 and 1/16 and ⅛ and ¼ and ½ in [3] (C. albicans, with NaTetraBorate); “⅛ and ¼ and ½” in [8] (C. lunata, with Ammonium sulfate); “¼ and ½” in test [8] (C. lunata, with Fluorescein); “¼ and ½” in [8] (C. lunata, with NaTetraBorate); “¼ and ½” in test [4] (A. niger, with Ammonium sulfate). Further, the “Reduced PhlB” value is “½” in test [4] (A. niger, with Fluorescein); “½” in test [4] (A. niger, with NaTetraBorate); “⅛ and ¼ and ½ and 1/16” in test [5] (R. insidiosa, with Fluorescein); “⅛ and ¼ and ½” in [5] (R. insidiosa, with NaTetraBorate); “¼ and ½ and ⅛” in test [6] (R. radiobacter, with Fluorescein); “¼ and ½” in test [6] (R. radiobacter, with NaTetraBorate). Further, the “Reduced PhlB” value was “⅛ and ¼ and ½ and 1/16” in test [7] (B. subtilis, with Fluorescein); 3/98 and 3/49 and ⅛ and ¼ and ½ in test [7] (B. subtilis, with NaTetraBorate). In addition, the “MIC at 24 hours in Light, PHL B” value in test [2] (setting [10]) is 1.93 µM and 3.62 µM; in test [3] (setting [11]) it was 125 µM and 125.36 µM and 62.68 µM; in test [4] (A. niger, alone ('Trial' line)) it was 1.93 µM and 3.62 µM; in test [6] (setting [13]) it was 0.12 µM and 0.24 µM; in [7] (setting [14]), 0.98 µM and 0.49 µM. Also, the “control of Gram(−) bacteria” value in the test on Gram(−) bacteria was “does not control Gram(−) bacteria”. In addition, in the test on Gram(+) bacteria, the “control of Gram(+) bacteria” value is recorded as “control Gram(+) bacteria at millimolar to micromolar concentrations”.

For the compound `O=C1OC2(c3ccc(O)cc3Oc3cc(O)ccc32)c2ccccc21` [Fluorescein, 3′,6′-dihydroxyspiro[2-benzofuran-3,9′-xanthene]-1-one], the MIC in test [1] (Stenotrophomonas maltophilia, ATCC13637, 24 h, read-out: MIC at 24 hours in Light, Fluorescein, S. maltophilia, alone ('Trial' line)) stood at 7.8 µM; in test [2] (Alternaria alternata, ATCC66981, 24 h, read-out: MIC at 24 hours in Light, Fluorescein, A. alternata, alone ('Trial' line)) it was 15.7 µM (≈ 5.21 µg/mL); in [3] (Candida albicans, ATCC10231, 24 h, read-out: MIC at 24 hours in Light, Fluorescein, C. albicans, alone ('Trial' line)), 2000 µM (≈ 665 µg/mL); in [8] (Curvularia lunata, ATCC12017, 24 h, read-out: MIC at 24 hours in Light, Fluorescein, C. lunata, alone ('Trial' line)) it was 15.7 µM (≈ 5.21 µg/mL); in test [4] (Aspergillus niger, ATCC6275, 24 h, read-out: MIC at 24 hours in Light, Fluorescein, A. niger, alone ('Trial' line)) it was 1.86 µM (≈ 0.618 µg/mL); in [5] (Ralstonia insidiosa, ATCC49129, 24 h, read-out: MIC at 24 hours in Light, Fluorescein, R. insidiosa, alone ('Trial' line)) it was 7.8 µM. Besides, the MIC in test [6] (alone ('Trial' line)) was determined as 0.98 µM; in test [6] (combined with PHL B (c2 of same line)) it was 0.49 µM; in [7] (Bacillus subtilis, ATCC15841, 24 h, read-out: MIC at 24 hours in Light, Fluorescein, B. subtilis, alone ('Trial' line)), 62.5 µM.
